Results as given in patent US20100298551A1, “Methods Of Producing And Sequencing Modified Polynucleotides” (priority 2005, published 2010).

Biological target: T1, exo− E. coli Polymerase I, Klenow fragment (Escherichia coli, UniProt P00582, D355A/E357A)
T1 construct: 12.5 U exo^− E. coli Polymerase I, Klenow fragment (Epicentre); purchased Epicentre
Assay: Primer extension: incorporation of 3′ thiol-nucleoside triphosphate into a growing DNA strand by DNA polymerase
Assay type: biochemical
Protocol: DNA synthesis was performed on a single-stranded DNA template (5′-TTTTTTCTAAGGTAGCGACTGTCCTATACAGACTGACAAAAAAAGAGAATGAGGAACCCGGGGCAG-3′) (SEQ ID NO:1), which was labeled at its 5′ end with a dual biotin tag and was attached to a magnetic bead (FIG. 3B). Synthesis was primed using a primer (5′-CTGCCCCGGGTTCCTCATTCTCT-3′) (SEQ ID NO:2), which was complementary to a portion of the DNA template. The primer was labeled with Cy5 at its 5′ end. The DNA template contained 5 adenine nucleotides immediately downstream of the primer sequence. […]

T1 sequence (P00582 324-928 D355A/E357A): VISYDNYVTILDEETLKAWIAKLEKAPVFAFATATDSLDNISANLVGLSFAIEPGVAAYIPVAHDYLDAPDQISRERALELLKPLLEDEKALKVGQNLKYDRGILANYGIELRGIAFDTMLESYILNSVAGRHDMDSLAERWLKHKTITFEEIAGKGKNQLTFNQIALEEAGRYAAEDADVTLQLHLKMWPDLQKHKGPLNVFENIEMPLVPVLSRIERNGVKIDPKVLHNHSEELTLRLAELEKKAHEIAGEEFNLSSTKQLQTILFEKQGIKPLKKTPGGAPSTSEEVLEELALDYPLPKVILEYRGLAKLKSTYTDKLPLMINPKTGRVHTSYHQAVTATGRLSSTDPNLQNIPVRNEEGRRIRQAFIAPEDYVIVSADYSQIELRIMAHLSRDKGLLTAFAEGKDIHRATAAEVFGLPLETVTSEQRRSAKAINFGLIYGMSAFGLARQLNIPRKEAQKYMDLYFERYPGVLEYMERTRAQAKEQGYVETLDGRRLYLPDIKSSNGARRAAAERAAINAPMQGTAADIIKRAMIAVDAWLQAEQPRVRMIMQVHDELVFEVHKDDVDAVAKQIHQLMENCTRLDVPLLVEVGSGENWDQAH

CSS[C@H]1C[C@H](n2cc(C)c(=O)[nH]c2=O)O[C@@H]1CO [3′-deoxy-dithiomethyl thymidine]
modified thymidine residues in the vast majority of reaction products (higher concentration 1.0 mM (FIG. 3E)): 5
number of 3′-deoxy-dithiomethyl thymidine nucleotides incorporated into the DNA product (template with 5 adenines downstream of primer, 37° C., 4.0 min): Up to five
